{
  "source": "patent US6723717B1",
  "about": "“Sulfur-containing thyroxane derivatives and their use as hair growth promotors” (The University of Texas Southwestern Medical Center, priority 1999, dated 2004)",
  "system": "male Sprague Dawley rats",
  "test": "Cardiotoxicity Assay (heart-to-body weight ratio)",
  "assay_type": "in vivo, rat",
  "conditions": "250 μg/kg subcutaneously once daily for 28 days, hearts weighed on day 30",
  "from_the_text": "The cardiotoxicity assay measures the potential of a test compound to adversely affect the cardiovascular system. As thyroid hormone (T3) damages the cardiovascular system, the heart enlarges. See, e.g., Gomberg-Maitland et al., “Thyroid hormone and Cardiovascular Disease”, American Heart Journal, Vol. 135(2), pp. 187-196 (1998); Klein and Ojamaa, “Thyroid Hormone and the Cardiovascular System”, Current Opinion in Endocrinology and Diabetes, Vol. 4, pp.341-346 (1997); and Klemperer et al., “Thyroid Hormone Therapy and Cardiovascular Disease”, Progress in Cardiovascular Diseases, Vol. 37 (4), pp. 329-336 (1996). This increases the weight of the heart relative to whole body weight. The cardiotoxicity assay herein below is used to test compounds for potentially adverse cardiac effects by measuring their effect on the heart-to-body weight ratio.\nTwo groups each of six male Sprague Dawley rats (Harlan Sprague Dawley, Inc., Indianapolis, Ind.) (each weighing from approximately 220 grams to 235 grams) are utilized. The first group is a vehicle control group and the second group is a test compound group. The length of the assay is 30 days, with treatment of vehicle or test compound in vehicle daily for 28 of those days as described below.\nPrior to initiation of the assay, each rat is allowed to acclimate to standard environmental conditions for 5 days. […]",
  "data": [
    {"smiles": "N[C@@H](Cc1cc(I)c(Oc2cc(I)c(O)c(I)c2)c(I)c1)C(=O)O", "note": "[Example T4, thyroxine]", "values": [
      {"measurement": "cardiac-sparing (index C = RT/RV, heart/body weight ratio of test group over vehicle group; C less than 1.3 = cardiac-sparing)", "value": "not cardiac-sparine"}
    ]}
  ]
}
